Measured values published in patent US5783689A, “Antibacterial and antifungal nucleosides” (University of Notre Dame, priority 1996, dated 1998).
In brackets after ≈: the same amount, converted by molar mass. Read-outs that look alike come from different tables or passages of the source. Where a SMILES comes first, the peptide text is derived from it. [ ]: non-standard residue; d: D form. The star is where a group is joined. X1 = O=c1[nH]c(=O)n([C@@H]2O[C@H](CO*)[C@@H](O)[C@H]2O)cc1F; Orn(N5-OH,N5-Ac) = CC(=O)N(O)CCC[C@H](N)C(=O)O

Legend:
Type in all cases: cell-based
E. Coli EC14 = experiment: MIC by agar dilution method; settings: Escherichia coli, read-out: Minimum Inhibitory Concentration
Text: (§1) The following Table 3 lists the minimum inhibitory concentrations obtained by the agar dilution method against Gram-positive and Gram-negative organisms with 5'-O-(valinyl)-5-fluorouridine and comparators ampicillin and 5-FC.

E. Coli TEM = experiment: MIC by agar dilution method; settings: Escherichia coli, read-out: Minimum Inhibitory Concentration
Text: as §1

[1] = system: Enterobacter aerogenes C32; experiment: MIC by agar dilution method; settings: Klebsiella aerogenes, read-out: Minimum Inhibitory Concentration
Text: as §1

[2] = system: Enterobacter aerogenes EB17; experiment: MIC by agar dilution method; settings: Klebsiella aerogenes, read-out: Minimum Inhibitory Concentration
Text: as §1

Enterobacter cloacae EB5 = experiment: MIC by agar dilution method; settings: read-out: Minimum Inhibitory Concentration
Text: as §1

Enterococcus D 2041 = experiment: MIC by agar dilution method; settings: D2041, read-out: Minimum Inhibitory Concentration
Text: as §1

Enterococcus D X66 = experiment: MIC by agar dilution method
Text: as §1

Klebsiella X26 = experiment: MIC by agar dilution method; settings: read-out: Minimum Inhibitory Concentration
Text: as §1

Morganella morganii PR15 = experiment: MIC by agar dilution method; settings: read-out: Minimum Inhibitory Concentration
Text: as §1

Proteus rett. C24 = experiment: MIC by agar dilution method; settings: read-out: Minimum Inhibitory Concentration
Text: as §1

Proteus stu PR33 = experiment: MIC by agar dilution method; settings: read-out: Minimum Inhibitory Concentration
Text: as §1

Pseudomonas PS19 = experiment: MIC by agar dilution method
Text: as §1

Salmonella 1335 = experiment: MIC by agar dilution method; settings: read-out: Minimum Inhibitory Concentration
Text: as §1

Salmonella X514 = experiment: MIC by agar dilution method; settings: read-out: Minimum Inhibitory Concentration
Text: as §1

Serratia SE3 = experiment: MIC by agar dilution method; settings: read-out: Minimum Inhibitory Concentration
Text: as §1

Serratia X99 = experiment: MIC by agar dilution method; settings: read-out: Minimum Inhibitory Concentration
Text: as §1

Shigella sonnei N9 = experiment: MIC by agar dilution method; settings: N9, read-out: Minimum Inhibitory Concentration
Text: as §1

[3] = system: Staphylococcus aureus S13E; experiment: MIC by agar dilution method; settings: read-out: Minimum Inhibitory Concentration
Text: as §1

[4] = system: Staphylococcus aureus V 41; experiment: MIC by agar dilution method; settings: V41, read-out: Minimum Inhibitory Concentration
Text: as §1

[5] = system: Staphylococcus aureus X 1.1; experiment: MIC by agar dilution method; settings: X1.1, read-out: Minimum Inhibitory Concentration
Text: as §1

[6] = system: Staphylococcus aureus X 400; experiment: MIC by agar dilution method
Text: as §1

[7] = system: Staphylococcus epidermis 222; experiment: MIC by agar dilution method; settings: read-out: Minimum Inhibitory Concentration
Text: as §1

[8] = system: Staphylococcus epidermis 70; experiment: MIC by agar dilution method; settings: read-out: Minimum Inhibitory Concentration
Text: as §1

Streptococcus pn PARK = experiment: MIC by agar dilution method; settings: read-out: Minimum Inhibitory Concentration
Text: as §1

Streptococcus A C203 = experiment: MIC by agar dilution method; design: key: NG: no growth
Text: as §1

[9] = system: Gram-positive bacteria including the methicillin resistant staphylococci; experiment: in vitro growth inhibition of Gram-positive bacteria including methicillin resistant staphylococci
Text: as §1

[10] = system: Gram-negative microorganisms; experiment: activity against Gram-negative microorganisms; settings: compared with Gram-positive bacteria
Text: as §1

Candida albicans = experiment: in vitro test against Candida albicans, zone of inhibition, Lee's medium; settings: 37° C.
Text: The test compound of Table 3,5'-O-(valinyl)-5-fluorouridine, was coupled to the triornithyl peptide represented by the formula 2 wherein p is 3 by following the reaction Scheme 1 above and substituting valine for glycine to provide the tetrapeptide of the invention. […] Lee, K. L.; Buckley, H. R.; Campbell, C. C., Saubouraudia, 1975, 13, 148. The tetrapeptide gave a 35 mm diameter zone of inhibition at a concentration of the compound of 25 nmol. while at a concentration of 5 nmol. the zone of inhibition was 26 mm.

[11] = Pseudomonas PS19, agar dilution, read-out: Minimum Inhibitory Concentration
[12] = DX66, Enterococcus D X66, agar dilution, read-out: Minimum Inhibitory Concentration
[13] = X400, Staphylococcus aureus X 400, agar dilution, read-out: Minimum Inhibitory Concentration

Row | Structure (SMILES) | MIC (E. Coli EC14; E. Coli EC14, agar dilution) [µg/mL] | MIC (E. Coli TEM) [µg/mL] | MIC [1] [µg/mL] | MIC [2] [µg/mL] | MIC (Enterobacter cloacae EB5) [µg/mL] | MIC (Enterococcus D 2041) [µg/mL] | MIC (Klebsiella X26) [µg/mL] | MIC (Morganella morganii PR15) [µg/mL] | MIC (Proteus rett. C24) [µg/mL] | MIC (Proteus stu PR33) [µg/mL] | MIC (Pseudomonas PS19; [11]) [µg/mL] | MIC (Salmonella 1335) [µg/mL] | MIC (Salmonella X514) [µg/mL] | MIC (Serratia SE3) [µg/mL] | MIC (Serratia X99) [µg/mL] | MIC [3] [µg/mL] | MIC [4] [µg/mL] | MIC [5] [µg/mL] | MIC [7] [µg/mL] | MIC [8] [µg/mL] | other results
1 | CC1(C)S[C@@H]2[C@H](NC(=O)[C@H](N)c3ccccc3)C(=O)N2[C@H]1C(=O)O [Ampicillin] | 0.06 (≈ 0.172 µM) | 0.03 (≈ 0.0859 µM) | 0.5 (≈ 1.43 µM) | 0.06 (≈ 0.172 µM) | 0.25 (≈ 0.715 µM) | 1 (≈ 2.86 µM) | 0.008 (≈ 0.0229 µM) | 1 (≈ 2.86 µM) | 0.06 (≈ 0.172 µM) | 0.06 (≈ 0.172 µM) | 32 (≈ 91.6 µM) | 0.125 (≈ 0.358 µM) | 0.06 (≈ 0.172 µM) | 0.5 (≈ 1.43 µM) | 0.25 (≈ 0.715 µM) | 128 (≈ 366 µM) | 4 (≈ 11.4 µM) | 2 (≈ 5.72 µM) | 2 (≈ 5.72 µM) | 8 (≈ 22.9 µM) | MIC (Enterococcus D X66; Enterococcus, DX66, read-out: Minimum Inhibitory Concentration): 128 µg/mL (≈ 366 µM); MIC (Shigella sonnei N9): 0.6 µg/mL (≈ 1.72 µM); MIC ([6]; Staphylococcus aureus, X400, read-out: Minimum Inhibitory Concentration): 128 µg/mL (≈ 366 µM)
2 | Nc1nc(=O)n([C@@H]2O[C@H](CO)[C@@H](O)[C@H]2O)cc1F [Example 5-FC, 5-fluorocytidine] | – | – | – | – | – | 4 (≈ 15.3 µM) | – | – | – | – | – | – | – | – | – | 2 (≈ 7.66 µM) | 8 (≈ 30.6 µM) | 8 (≈ 30.6 µM) | 16 (≈ 61.3 µM) | 16 (≈ 61.3 µM) | MIC (E. Coli EC14): > 128 µg/mL; MIC (Enterococcus D X66; [12]): 0.25 µg/mL (≈ 0.957 µM); MIC (Pseudomonas PS19; Pseudomonas, PS19, read-out: Minimum Inhibitory Concentration): > 128 µg/mL; MIC [6, 13]: 8 µg/mL (≈ 30.6 µM)
3 | CC(C)[C@H](N)C(=O)OC[C@H]1O[C@@H](n2cc(F)c(=O)[nH]c2=O)[C@H](O)[C@@H]1O [Test Compd, 5'-O-(L-valinyl)-5-fluorouridine] | 128 (≈ 354 µM) | 16 (≈ 44.3 µM) | 64 (≈ 177 µM) | 64 (≈ 177 µM) | 32 (≈ 88.6 µM) | 2 (≈ 5.54 µM) | 32 (≈ 88.6 µM) | 8 (≈ 22.1 µM) | 16 (≈ 44.3 µM) | 32 (≈ 88.6 µM) | 128 (≈ 354 µM) | 32 (≈ 88.6 µM) | 32 (≈ 88.6 µM) | 16 (≈ 44.3 µM) | 16 (≈ 44.3 µM) | 0.125 (≈ 0.346 µM) | 0.25 (≈ 0.692 µM) | 0.5 (≈ 1.38 µM) | 1 (≈ 2.77 µM) | 0.03 (≈ 0.083 µM) | MIC (Enterococcus D X66; [12]): 32 µg/mL (≈ 88.6 µM); MIC (Shigella sonnei N9): 64 µg/mL (≈ 177 µM); MIC [6, 13]: 0.25 µg/mL (≈ 0.692 µM); MIC (Streptococcus pn PARK): 128 µg/mL (≈ 354 µM); Minimum Inhibitory Concentration (Streptococcus A C203): NG; growth inhibition of Gram-positive bacteria / methicillin-resistant staphylococcus (in words) [9]: inhibited the in vitro growth of Gram-positive bacteria including the methicillin resistant staphylococci; growth inhibition of Gram-positive bacteria / methicillin-resistant staphylococcus (in words) ([9]; listed as 5'-O-(valinyl)-5-fluorouridine): inhibits the growth of methicillin-resistant staphylococcus; activity against Gram-negative microorganisms (in words) [10]: also active against Gram-negative microorganisms but to a lesser degree
4 | CC(=O)N(O)CCC[C@H](NC(=O)[C@H](CCCN(O)C(C)=O)NC(=O)[C@@H](N)CCCN(O)C(C)=O)C(=O)N[C@H](C(=O)OC[C@H]1O[C@@H](n2cc(F)c(=O)[nH]c2=O)[C@H](O)[C@@H]1O)C(C)C [tetrapeptide] (H-[Orn(N5-OH,N5-Ac)][Orn(N5-OH,N5-Ac)][Orn(N5-OH,N5-Ac)]V-X1) | – | – | – | – | – | – | – | – | – | – | – | – | – | – | – | – | – | – | – | – | diameter zone of inhibition (Candida albicans; 5 nmol): 26 mm; diameter zone of inhibition (Candida albicans; 25 nmol): 35 mm; activity against Candida albicans (in words) (Candida albicans; in vitro): exhibited activity against Candida albicans
